Tested on: electrical stimulation induced occlusive aortic thrombosis
Assay: Thrombolytic activity in a rat model of electrical stimulation induced occlusive aortic thrombosis
Assay type: in vivo, CD rats
Conditions: for Area under the curve (cm^2 ± s.e.m.): area under the blood flow trace; for Area under the curve (cm^2 ± s.e.m.) / Number of animals showing thrombolyis: n=8; for Thrombolytic activity (result in words): in the absence of exogenous plasminogen activators
Experimental: The compounds which are usable according to the invention were studied in rats for their activity as thrombolytic agents in a model of electrical stimulation induced occlusive aortic thrombosis.
CD rats weighing 450 g to 500 g are anaesthetized with sodium pentobarbital (60 mg/kg i.p.) and the left renal artery is catheterized. Thrombosis is induced according to the method described by Hladovec (Throm. Haemosts. (1971), 26, 407-410). A segment of abdominal aorta approximately 1 cm in length is exposed between the renal artery and the iliac bifurcation, and an electromagnetic flow probe is placed around this segment to measure blood flow rate, and a bipolar electrode is placed downstream of the probe. After 15 minutes of stabilisation, a 5 mA direct current is applied for 5 minutes to the outer surface of the artery using a stimulator. When the flow rate reaches the zero value, previously determined by clamping the artery between the probe and the electrode, the time to formation of an occlusive thrombus is noted. After 5 minutes of stabilisation of the thrombus, the test compound or the vehicle is injected via the catheter as a 0.5 ml bolus followed by a 60 minute perfusion at 0.1 ml/min. The blood flow rate is recorded during the perfusion period. Thrombolysis is estimated by measuring the area under the blood flow trace, which reflects both the time to, and the extent of recanalisation. The results are expressed as a mean #standard error of the mean.
In animals receiving the vehicle, the abdominal aorta remains occluded throughout the period of administration. In contrast, direct acting thrombin inhibitors increase the area under the curve in a dose-dependent manner and rapidly restore blood flow.

[1] = dose 100 + 20 μg/kg + μg/kg/min
[2] = dose 100 + 20 μg/kg + μg/kg/min (bolus + 60 minute perfusion)
[3] = dose 200 + 40 μg/kg + μg/kg/min
[4] = dose 200 + 40 μg/kg + μg/kg/min (bolus + 60 minute perfusion)
[5] = dose 400 + 80 μg/kg + μg/kg/min

| SMILES | % Increase (area under the curve vs vehicle) (dose 25 + 5 μg/kg + μg/kg/min) | Area under the curve (cm^2 ± s.e.m.) (dose 25 + 5 μg/kg + μg/kg/min (bolus + 60 minute perfusion)) | Number of animals showing thrombolyis (dose 25 + 5 μg/kg + μg/kg/min) | % Increase (area under the curve vs vehicle) [1] | Area under the curve (cm^2 ± s.e.m.) [2] | Number of animals showing thrombolyis [1] | % Increase (area under the curve vs vehicle) [3] | Area under the curve (cm^2 ± s.e.m.) [4] | Number of animals showing thrombolyis [3] | Thrombolytic activity (result in words) | % Increase (area under the curve vs vehicle) [5] | Area under the curve (cm^2 ± s.e.m.) (dose 400 + 80 μg/kg + μg/kg/min (bolus + 60 minute perfusion)) | Number of animals showing thrombolyis [5] | % Increase (area under the curve vs vehicle) (dose 50 + 10 μg/kg + μg/kg/min) | Area under the curve (cm^2 ± s.e.m.) (dose 50 + 10 μg/kg + μg/kg/min (bolus + 60 minute perfusion)) | Number of animals showing thrombolyis (dose 50 + 10 μg/kg + μg/kg/min) |
| --- | --- | --- | --- | --- | --- | --- | --- | --- | --- | --- | --- | --- | --- | --- | --- | --- |
| CC1CNc2c(cccc2S(=O)(=O)N[C@@H](CCCNC(=N)N)C(=O)N2CC[C@@H](C)C[C@@H]2C(=O)O)C1 (stereo partly drawn) [Argatroban, argatroban] | 284% | 137.5 ± 45.6 cm^2 | 4 | 406% | 181.1 ± 99.6 cm^2 | 3 | 1186% | 460.3 ± 86.5 cm^2 | 7 | have shown thrombolytic activity | – | – | – | – | – | – |
| CC(=O)N[C@H](Cc1ccccc1)C(=O)N1CCC[C@H]1C(=O)N[C@@H](CCCN=C(N)N)B(O)O [DUP714, Ac-(D-Phe)-Pro-boro-Arg-OH] | – | – | – | 620% | 339.7 ± 84.7 cm^2 | 5 | 667% | 362.3 ± 61.1 cm^2 | 7 | have shown thrombolytic activity | 1118% | 575.3 ± 99.0 cm^2 | 8 | – | – | – |
| NC(N)=NCCC[C@H](NC(=O)[C@@H]1CCCN1C(=O)[C@H](N)Cc1ccccc1)C(=O)CCl [PPACK, D-Phe-Pro-Arg chloromethyl ketone] | – | – | – | 556% | 284.8 ± 98.9 cm^2 | 5 | 1148% | 542.7 ± 75.2 cm^2 | 7 | have shown thrombolytic activity | – | – | – | 572% | 291.7 ± 96.5 cm^2 | 5 |

Reference: US5583113A, “Use of a direct-acting thrombin inhibitor for the manufacture of a medicinal product having thrombolytic activity” (Synthelabo, priority 1992, dated 1996)
